Laboratory results: PubChem BioAssay AID504400 (The Scripps Research Institute Molecular Screening Center, 2011)
The source made the active and inactive calls. No rule for the calls is given here.

Tests used:
Experiment in all cases: CYP450 and receptor off-target profile – biochemical, Ricerca HitProfilingScreen, selectivity assay for S1P4 agonist project, late-stage follow-up (AID 504400)
Opiate mu (OP3, MOP) = conditions: Ricerca radioligand binding/enzyme panel plus CYP450, at 10 µM, stronger effect = higher value
[1] = target: Cytochrome P450 3A4 (Homo sapiens) (UniProt P08684); conditions: Ricerca radioligand binding/enzyme panel plus CYP450; CYP450, 3A4; at 10 µM; stronger effect = higher value
Adrenergic alpha1A = conditions: Ricerca radioligand binding/enzyme panel plus CYP450, at 10 µM, stronger effect = higher value
[2] = target: 5-hydroxytryptamine receptor 2B (Homo sapiens) (UniProt P41595); conditions: Ricerca radioligand binding/enzyme panel plus CYP450; Serotonin (5-Hydroxytryptamine) 5-HT2B; at 10 µM; stronger effect = higher value
Nicotinic Acetylcholine = conditions: Ricerca radioligand binding/enzyme panel plus CYP450, at 10 µM, stronger effect = higher value
Cannabinoid CB1 = conditions: Ricerca radioligand binding/enzyme panel plus CYP450, at 10 µM, stronger effect = higher value
Adrenergic alpha1B = conditions: Ricerca radioligand binding/enzyme panel plus CYP450, at 10 µM, stronger effect = higher value
[3] = test system: Alpha-2A adrenergic receptor (Homo sapiens) + Histamine H1 receptor (Homo sapiens) + Mu-type opioid receptor (Homo sapiens); conditions: Ricerca radioligand binding/enzyme panel plus CYP450; at 10 µM; stronger effect = higher value
[4] = target: Muscarinic acetylcholine receptor M3 (Homo sapiens) (UniProt P20309); conditions: Ricerca radioligand binding/enzyme panel plus CYP450, at 10 µM, stronger effect = higher value
[5] = target: Alpha-2A adrenergic receptor (Homo sapiens) (UniProt P08913); conditions: Ricerca radioligand binding/enzyme panel plus CYP450; Adrenergic alpha2A; at 10 µM; stronger effect = higher value
Glutamate NMDA = conditions: Ricerca radioligand binding/enzyme panel plus CYP450, Phencyclidine, at 10 µM, stronger effect = higher value
Calcium Channel L-Type = conditions: Ricerca radioligand binding/enzyme panel plus CYP450, Dihydropyridine, at 10 µM, stronger effect = higher value
Sigma 1 = conditions: Ricerca radioligand binding/enzyme panel plus CYP450, at 10 µM, stronger effect = higher value
[6] = target: Voltage-gated inwardly rectifying potassium channel KCNH2 (Homo sapiens) (UniProt Q12809); conditions: Ricerca radioligand binding/enzyme panel plus CYP450; Potassium Channel hERG; at 10 µM; stronger effect = higher value
Adenosine A2A = conditions: Ricerca radioligand binding/enzyme panel plus CYP450, at 10 µM, stronger effect = higher value
[7] = target: Cytochrome P450 2C9 (Homo sapiens) (UniProt P11712); conditions: Ricerca radioligand binding/enzyme panel plus CYP450; CYP450, 2C9; at 10 µM; stronger effect = higher value
[8] = target: Cytochrome P450 1A2 (Homo sapiens) (UniProt P05177); conditions: Ricerca radioligand binding/enzyme panel plus CYP450; CYP450, 1A2; at 10 µM; stronger effect = higher value
[9] = target: Cytochrome P450 2D6 (Homo sapiens) (UniProt P10635); conditions: Ricerca radioligand binding/enzyme panel plus CYP450; CYP450, 2D6; at 10 µM; stronger effect = higher value
[10] = target: Muscarinic acetylcholine receptor M2 (Homo sapiens) (UniProt P08172); conditions: Ricerca radioligand binding/enzyme panel plus CYP450, at 10 µM, stronger effect = higher value
Sodium Channel, Site 2 = conditions: Ricerca radioligand binding/enzyme panel plus CYP450, at 10 µM, stronger effect = higher value
Dopamine D2S = conditions: Ricerca radioligand binding/enzyme panel plus CYP450, at 10 µM, stronger effect = higher value
[11] = target: D(1A) dopamine receptor (Homo sapiens) (UniProt P21728); conditions: Ricerca radioligand binding/enzyme panel plus CYP450; Dopamine D1; at 10 µM; stronger effect = higher value
CYP450, 2C19 = conditions: Ricerca radioligand binding/enzyme panel plus CYP450, at 10 µM, stronger effect = higher value
Adenosine A1 = conditions: Ricerca radioligand binding/enzyme panel plus CYP450, at 10 µM, stronger effect = higher value
Histamine H1 = conditions: Ricerca radioligand binding/enzyme panel plus CYP450, at 10 µM, stronger effect = higher value
Prostanoid EP4 = conditions: Ricerca radioligand binding/enzyme panel plus CYP450, at 10 µM, stronger effect = higher value
Adrenergic beta1 = conditions: Ricerca radioligand binding/enzyme panel plus CYP450, at 10 µM, stronger effect = higher value
GABAA = conditions: Central, at 10 µM, stronger effect = higher value
[12] = test system: Transporter, Norepinephrine (NET); conditions: Ricerca radioligand binding/enzyme panel plus CYP450, at 10 µM, stronger effect = higher value
[13] = target: Beta-2 adrenergic receptor (Homo sapiens) (UniProt P07550); conditions: Ricerca radioligand binding/enzyme panel plus CYP450; Adrenergic beta2; at 10 µM; stronger effect = higher value
Chain of Beta-2 adrenergic receptor (Homo sapiens) (P07550 whole entry, looked up): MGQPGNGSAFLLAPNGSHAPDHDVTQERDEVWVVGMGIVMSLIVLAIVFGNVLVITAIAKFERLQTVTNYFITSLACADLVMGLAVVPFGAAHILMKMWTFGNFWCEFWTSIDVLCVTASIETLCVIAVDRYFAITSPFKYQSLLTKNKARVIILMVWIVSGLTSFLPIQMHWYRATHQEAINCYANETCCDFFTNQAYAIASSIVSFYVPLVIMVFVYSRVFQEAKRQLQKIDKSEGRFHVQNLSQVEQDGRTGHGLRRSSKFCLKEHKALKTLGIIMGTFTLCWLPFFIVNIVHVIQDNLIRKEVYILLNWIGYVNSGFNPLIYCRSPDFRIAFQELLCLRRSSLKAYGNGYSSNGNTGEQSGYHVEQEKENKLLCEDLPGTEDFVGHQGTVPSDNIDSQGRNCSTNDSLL

Chain of Cytochrome P450 1A2 (Homo sapiens) (P05177 whole entry, looked up): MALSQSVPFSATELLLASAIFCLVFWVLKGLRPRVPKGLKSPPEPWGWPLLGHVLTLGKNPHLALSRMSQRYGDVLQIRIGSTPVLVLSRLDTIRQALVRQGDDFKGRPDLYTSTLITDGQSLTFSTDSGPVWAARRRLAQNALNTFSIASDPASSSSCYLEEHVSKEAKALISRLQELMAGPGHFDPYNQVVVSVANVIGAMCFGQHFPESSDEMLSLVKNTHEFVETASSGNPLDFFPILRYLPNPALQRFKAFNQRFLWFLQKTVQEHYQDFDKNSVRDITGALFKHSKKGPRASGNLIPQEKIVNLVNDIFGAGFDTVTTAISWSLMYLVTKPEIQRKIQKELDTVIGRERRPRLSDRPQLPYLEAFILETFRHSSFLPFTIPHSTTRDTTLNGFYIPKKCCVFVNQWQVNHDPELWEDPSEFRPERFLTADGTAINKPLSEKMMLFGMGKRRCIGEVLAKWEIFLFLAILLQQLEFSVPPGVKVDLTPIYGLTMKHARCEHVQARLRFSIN
Chain of 5-hydroxytryptamine receptor 2B (Homo sapiens) (P41595 whole entry, looked up): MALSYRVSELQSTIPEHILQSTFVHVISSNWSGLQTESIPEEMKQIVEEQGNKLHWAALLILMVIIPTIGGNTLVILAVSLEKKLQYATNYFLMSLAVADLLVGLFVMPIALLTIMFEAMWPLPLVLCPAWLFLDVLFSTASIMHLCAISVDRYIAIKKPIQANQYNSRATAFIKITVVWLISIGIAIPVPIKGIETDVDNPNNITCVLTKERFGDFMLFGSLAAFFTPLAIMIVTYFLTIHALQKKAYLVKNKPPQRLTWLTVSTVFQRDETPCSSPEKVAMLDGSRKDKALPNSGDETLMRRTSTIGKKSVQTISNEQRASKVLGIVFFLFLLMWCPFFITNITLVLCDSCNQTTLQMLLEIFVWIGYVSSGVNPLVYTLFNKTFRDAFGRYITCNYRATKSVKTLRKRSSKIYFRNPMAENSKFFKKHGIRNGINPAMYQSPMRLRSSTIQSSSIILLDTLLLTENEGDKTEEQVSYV
Chain of Alpha-2A adrenergic receptor (Homo sapiens) (P08913 whole entry, looked up): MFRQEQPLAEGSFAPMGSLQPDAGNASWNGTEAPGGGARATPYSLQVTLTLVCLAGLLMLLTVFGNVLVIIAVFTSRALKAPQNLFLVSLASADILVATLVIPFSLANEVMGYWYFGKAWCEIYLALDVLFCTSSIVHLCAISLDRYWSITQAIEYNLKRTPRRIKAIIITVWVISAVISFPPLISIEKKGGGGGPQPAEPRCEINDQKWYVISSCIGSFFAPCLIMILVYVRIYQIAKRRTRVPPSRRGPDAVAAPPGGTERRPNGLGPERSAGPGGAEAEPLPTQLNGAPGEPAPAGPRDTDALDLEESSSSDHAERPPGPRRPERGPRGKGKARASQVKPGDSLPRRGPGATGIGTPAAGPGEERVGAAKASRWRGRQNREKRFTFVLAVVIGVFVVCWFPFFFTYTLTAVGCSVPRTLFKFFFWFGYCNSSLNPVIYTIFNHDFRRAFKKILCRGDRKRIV
Chain of Voltage-gated inwardly rectifying potassium channel KCNH2 (Homo sapiens) (Q12809 whole entry, looked up): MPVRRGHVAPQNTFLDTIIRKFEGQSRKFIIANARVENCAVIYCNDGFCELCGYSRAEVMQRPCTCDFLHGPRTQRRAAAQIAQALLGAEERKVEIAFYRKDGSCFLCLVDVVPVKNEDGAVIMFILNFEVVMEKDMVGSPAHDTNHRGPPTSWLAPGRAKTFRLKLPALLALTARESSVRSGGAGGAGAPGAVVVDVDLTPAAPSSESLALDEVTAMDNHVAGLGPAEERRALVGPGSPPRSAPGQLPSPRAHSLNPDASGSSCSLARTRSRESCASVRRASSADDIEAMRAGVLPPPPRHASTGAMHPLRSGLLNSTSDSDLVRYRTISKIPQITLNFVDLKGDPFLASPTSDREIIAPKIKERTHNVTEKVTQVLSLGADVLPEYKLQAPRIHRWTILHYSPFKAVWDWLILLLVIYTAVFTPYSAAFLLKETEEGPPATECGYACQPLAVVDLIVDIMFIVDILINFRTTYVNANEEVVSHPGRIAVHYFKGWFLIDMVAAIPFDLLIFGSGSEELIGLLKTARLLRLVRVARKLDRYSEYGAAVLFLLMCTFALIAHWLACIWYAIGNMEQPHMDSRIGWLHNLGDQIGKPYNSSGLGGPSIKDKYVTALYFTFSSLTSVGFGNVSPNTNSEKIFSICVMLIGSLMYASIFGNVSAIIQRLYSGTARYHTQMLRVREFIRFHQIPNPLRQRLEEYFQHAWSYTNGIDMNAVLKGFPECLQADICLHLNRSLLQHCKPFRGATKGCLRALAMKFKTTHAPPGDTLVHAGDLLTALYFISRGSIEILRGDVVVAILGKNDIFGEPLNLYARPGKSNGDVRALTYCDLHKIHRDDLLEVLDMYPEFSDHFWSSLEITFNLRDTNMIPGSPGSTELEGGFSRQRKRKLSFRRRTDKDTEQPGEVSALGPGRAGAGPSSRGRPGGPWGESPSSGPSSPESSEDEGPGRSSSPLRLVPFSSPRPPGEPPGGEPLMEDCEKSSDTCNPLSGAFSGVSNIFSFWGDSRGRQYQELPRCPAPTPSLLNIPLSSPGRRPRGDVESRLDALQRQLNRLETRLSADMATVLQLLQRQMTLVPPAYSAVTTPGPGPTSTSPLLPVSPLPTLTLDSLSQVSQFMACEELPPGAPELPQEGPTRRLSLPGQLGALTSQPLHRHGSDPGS
Chain of Muscarinic acetylcholine receptor M2 (Homo sapiens) (P08172 whole entry, looked up): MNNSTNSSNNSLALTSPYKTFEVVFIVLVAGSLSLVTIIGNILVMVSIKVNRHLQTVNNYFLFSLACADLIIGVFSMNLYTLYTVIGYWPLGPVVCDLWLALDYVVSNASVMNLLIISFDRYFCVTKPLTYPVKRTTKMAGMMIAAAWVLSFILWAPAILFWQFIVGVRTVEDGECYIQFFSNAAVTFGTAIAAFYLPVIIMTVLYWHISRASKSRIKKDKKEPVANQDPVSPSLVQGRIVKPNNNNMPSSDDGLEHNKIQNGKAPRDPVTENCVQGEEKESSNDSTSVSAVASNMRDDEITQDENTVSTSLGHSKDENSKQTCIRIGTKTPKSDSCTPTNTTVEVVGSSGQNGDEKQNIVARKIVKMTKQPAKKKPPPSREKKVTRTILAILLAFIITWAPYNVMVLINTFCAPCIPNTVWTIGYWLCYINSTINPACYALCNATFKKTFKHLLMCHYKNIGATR
Chain of Muscarinic acetylcholine receptor M3 (Homo sapiens) (P20309 whole entry, looked up): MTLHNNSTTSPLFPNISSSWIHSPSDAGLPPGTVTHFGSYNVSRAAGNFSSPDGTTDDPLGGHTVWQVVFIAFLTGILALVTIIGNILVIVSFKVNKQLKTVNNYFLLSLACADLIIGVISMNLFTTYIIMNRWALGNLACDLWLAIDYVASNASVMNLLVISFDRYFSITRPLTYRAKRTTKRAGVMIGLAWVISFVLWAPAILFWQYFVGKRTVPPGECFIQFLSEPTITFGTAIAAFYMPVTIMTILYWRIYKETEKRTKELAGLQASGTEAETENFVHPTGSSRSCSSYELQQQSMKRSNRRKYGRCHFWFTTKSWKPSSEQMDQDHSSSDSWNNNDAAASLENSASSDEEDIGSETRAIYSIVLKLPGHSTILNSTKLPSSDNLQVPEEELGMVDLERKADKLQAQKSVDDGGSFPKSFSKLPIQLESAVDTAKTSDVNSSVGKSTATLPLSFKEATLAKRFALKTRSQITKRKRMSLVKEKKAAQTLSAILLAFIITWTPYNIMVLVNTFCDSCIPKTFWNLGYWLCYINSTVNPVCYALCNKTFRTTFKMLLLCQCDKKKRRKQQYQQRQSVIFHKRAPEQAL
Chain of Cytochrome P450 3A4 (Homo sapiens) (P08684 whole entry, looked up): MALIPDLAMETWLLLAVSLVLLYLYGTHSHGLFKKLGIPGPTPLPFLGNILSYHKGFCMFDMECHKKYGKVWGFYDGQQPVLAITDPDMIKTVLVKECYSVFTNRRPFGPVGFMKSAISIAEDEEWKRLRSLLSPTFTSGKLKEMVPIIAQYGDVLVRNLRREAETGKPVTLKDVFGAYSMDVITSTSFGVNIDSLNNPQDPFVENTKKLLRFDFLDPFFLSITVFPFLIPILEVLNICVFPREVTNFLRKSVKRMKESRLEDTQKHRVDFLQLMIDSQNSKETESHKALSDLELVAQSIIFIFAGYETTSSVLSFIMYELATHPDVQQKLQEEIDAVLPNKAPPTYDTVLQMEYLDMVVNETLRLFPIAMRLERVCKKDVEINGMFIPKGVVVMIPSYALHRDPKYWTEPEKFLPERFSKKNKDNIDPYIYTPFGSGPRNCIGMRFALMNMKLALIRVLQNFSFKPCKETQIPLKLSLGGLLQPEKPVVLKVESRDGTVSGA

What does the source list for `Clc1ccc(OCCOc2ccc(Br)nc2Br)c(Cl)c1`?
inhibition (Opiate mu (OP3, MOP)): 9% (inactive); inhibition [1]: -5% (inactive); inhibition (Adrenergic alpha1A): 28% (inactive); inhibition [2]: 27% (inactive); inhibition (Nicotinic Acetylcholine): -4% (inactive); inhibition (Cannabinoid CB1): 31% (inactive); inhibition (Adrenergic alpha1B): 26% (inactive); inhibition [3]: 0% (inactive); inhibition [4]: -3% (inactive); inhibition [5]: 9% (inactive); inhibition (Glutamate NMDA): -5% (inactive); inhibition (Calcium Channel L-Type): 51%; inhibition (Sigma 1): 22% (inactive); inhibition [6]: -1% (inactive); inhibition (Adenosine A2A): 10% (inactive); inhibition [7]: 3% (inactive); inhibition [8]: 58%; inhibition [9]: 2% (inactive); inhibition [10]: 2% (inactive); inhibition (Sodium Channel, Site 2): 32% (inactive); inhibition (Dopamine D2S): 25% (inactive); inhibition [11]: 18% (inactive); inhibition (CYP450, 2C19): 97%; inhibition (Adenosine A1): 7% (inactive); inhibition (Histamine H1): 15% (inactive); inhibition (Prostanoid EP4): -7% (inactive); inhibition (Adrenergic beta1): 12% (inactive); inhibition (GABAA; Ricerca radioligand binding/enzyme panel plus CYP450, Flunitrazepam): 2% (inactive); inhibition (GABAA; Ricerca radioligand binding/enzyme panel plus CYP450, Muscimol): 1% (inactive); inhibition [12]: 68%; inhibition [13]: 7% (inactive)
